Laboratory results as given in ChEMBL document CHEMBL4033694, “Synthesis, antimycobacterial activity and docking study of 2-aroyl-[1]benzopyrano[4,3-c]pyrazol-4(1H)-one derivatives and related hydrazide-hydrazones” (Bioorg Med Chem Lett, 2017).
Values after ≈ are worked out from the molar mass of the structure shown. Structures can show the parent of a compound that is named as a salt.

Experiments:
[1] = Solubility of the compound in H2O; assay type: physicochemical
[2] = Solubility of the compound in MeOH; assay type: physicochemical
[3] = Selectivity index, ratio of IC50 for HEK293T cells to MIC for Mycobacterium tuberculosis H37Rv; assay type: toxicity; conditions: human, read-out: Selectivity Index
[4] = Solubility of the compound in CHCl3; assay type: physicochemical
[5] = Stability of the compound in DMSO-d6 solvent measured every 8 hrs for 12 days by 1H NMR spectra analysis; assay type: physicochemical; conditions: 288 h
[6] = Solubility of the compound in EtOH; assay type: physicochemical
[7] = Stability of the compound in DMSO-d6 solvent/middlebrook 7H9 broth media after 16 hrs by 1H NMR spectra analysis; assay type: physicochemical
[8] = test system: Mycobacterium tuberculosis; experiment: Antimicrobial activity against Mycobacterium tuberculosis H37Rv after 7 days by resazurin microtiter assay; assay type: functional; conditions: 168 h
HEK-293T = experiment: Cytotoxicity against HEK293T cells after 72 hrs by MTT assay; assay type: cell-based; conditions: Homo sapiens
[9] = Thermal stability of the compound in DMSO-d6 solvent at 37 degC by 1H NMR spectra analysis; assay type: physicochemical

| SMILES | solubility [1] | solubility [2] | selectivity ratio [3] | solubility [4] | Stability [5] | solubility [6] | Stability [7] | MIC [8] [µM] | IC50 (HEK-293T) [µM] | Stability [9] |
| --- | --- | --- | --- | --- | --- | --- | --- | --- | --- | --- |
| CN(C)c1ccc(C(=O)n2cc3c(=O)oc4ccccc4c3n2)cc1 | Insoluble | Insoluble | > 408 | Insoluble | Stable | Insoluble | Stable | 0.59 (≈ 0.197 µg/mL) | > 200 | Stable |
| O=C(c1ccc(O)cc1)n1cc2c(=O)oc3ccccc3c2n1 | – | – | > 625 | – | – | – | – | 0.32 (≈ 0.098 µg/mL) | > 200 | – |
| COc1ccc(C(=O)N/N=C/c2c(Cl)c3ccccc3oc2=O)cc1 | Insoluble | Insoluble | 403 | Insoluble | Stable | Insoluble | Stable | 0.28 (≈ 0.0999 µg/mL) | 113 | Stable |
| O=C(N/N=C/c1c(Cl)c2ccccc2oc1=O)c1ccc(O)cc1O | – | – | – | – | – | – | – | 0.56 (≈ 0.201 µg/mL) | – | – |
| O=C(N/N=C/c1c(Cl)c2ccccc2oc1=O)c1ccc(Cl)cc1 | Insoluble | Insoluble | 33 | Insoluble | Stable | Insoluble | Stable | 0.55 (≈ 0.199 µg/mL) | 21 | Stable |
| COc1ccc(C(=O)n2cc3c(=O)oc4ccccc4c3n2)cc1 | Insoluble | Insoluble | > 645 | Insoluble | Stable | Insoluble | Stable | 0.62 (≈ 0.199 µg/mL) | > 200 | Stable |
| O=C(c1ccc(O)cc1O)n1cc2c(=O)oc3ccccc3c2n1 | Insoluble | Insoluble | > 308 | Insoluble | Stable | Insoluble | Stable | 0.62 (≈ 0.2 µg/mL) | > 200 | Stable |
| CN(C)c1ccc(C(=O)N/N=C/c2c(Cl)c3ccccc3oc2=O)cc1 | Insoluble | Insoluble | 20 | Insoluble | Stable | Insoluble | Stable | 0.54 (≈ 0.2 µg/mL) | 18.7 | Stable |
| O=C(c1ccco1)n1cc2c(=O)oc3ccccc3c2n1 | – | – | > 282 | – | – | – | – | 0.72 (≈ 0.202 µg/mL) | > 200 | – |
| Cc1occc1C(=O)n1cc2c(=O)oc3ccccc3c2n1 | – | – | > 119 | – | – | – | – | 1.69 (≈ 0.497 µg/mL) | > 200 | – |
| O=C(N/N=C/c1c(Cl)c2ccccc2oc1=O)c1ccco1 | Insoluble | Insoluble | 236 | Insoluble | Stable | Insoluble | Stable | 0.63 (≈ 0.2 µg/mL) | 63.6 | Stable |
| CC[C@@H](CO)NCCN[C@@H](CC)CO [ETHAMBUTOL HYDROCHLORIDE] | – | – | – | – | – | – | – | 1.46 | – | – |
| NNC(=O)c1ccncc1 [ISONIAZID] | – | – | – | – | – | – | – | 0.79 (≈ 0.108 µg/mL) | – | – |
